# Source: ChEMBL document CHEMBL3885881, “DrugMatrix”
# Species: Rattus norvegicus
# Assay: DrugMatrix - Regimen: Daily Repeat
# Type: toxicity, organism-based, Sprague-Dawley
# Parameters: regimen Daily Repeat, gender Male, age 6-8 weeks
# Conditions: in vivo, po, route oral GAVAGE, vehicle 100 % WATER; for ABSOLUTE BASOPHIL / ABSOLUTE EOSINOPHIL / ABSOLUTE LYMPHOCYTE / ABSOLUTE MONOCYTE / ABSOLUTE SEGMENTED NEUTROPHIL / BASOPHIL / EOSINOPHIL / ERYTHROCYTE COUNT / HEMATOCRIT / HEMOGLOBIN / LEUKOCYTE COUNT / LYMPHOCYTE / MEAN CORPUSCULAR HEMOGLOBIN / MEAN CORPUSCULAR HEMOGLOBIN CONCENTRATION / MEAN CORPUSCULAR VOLUME / MONOCYTE / NEUTROPHIL / NUCLEATED RED BLOOD CELLS / PLATELET COUNT: tissue Blood; for ALANINE AMINOTRANSFERASE / ALBUMIN / ALKALINE PHOSPHATASE / ASPARTATE AMINOTRANSFERASE / BLOOD UREA NITROGEN / CARBON DIOXIDE / CHLORIDE / CHOLESTEROL / CREATINE PHOSPHOKINASE / CREATININE / GLUCOSE / LACTATE DEHYDROGENASE / LIPASE / PHOSPHORUS / POTASSIUM / SODIUM / TOTAL BILIRUBIN / TOTAL PROTEIN / URIC ACID: tissue Plasma
# [1] = 0 mg/kg, 72 h, dose level Control, time 3 day
# [2] = 0 mg/kg, 120 h, dose level Control, time 5 day
# [3] = 14 mg/kg, 72 h, dose level Low, time 3 day
smiles,measurement,setting,value
C[C@H]1c2cccc(O)c2C(=O)C2=C(O)[C@]3(O)C(=O)C(C(N)=O)=C(O)[C@@H](N(C)C)[C@@H]3[C@@H](O)[C@@H]21.O [DOXYCYCLINE],ABSOLUTE BASOPHIL,[1],0 CELLS/uL
same,ABSOLUTE EOSINOPHIL,[1],86.33 CELLS/uL
same,ABSOLUTE LYMPHOCYTE,[1],12090.17 CELLS/uL
same,ABSOLUTE MONOCYTE,[1],166.67 CELLS/uL
same,ABSOLUTE SEGMENTED NEUTROPHIL,[1],1090.17 CELLS/uL
same,BASOPHIL,[1],0%
same,EOSINOPHIL,[1],0.67%
same,ERYTHROCYTE COUNT,[1],5.57 x10E6/uL
same,HEMATOCRIT,[1],35.33%
same,HEMOGLOBIN,[1],13.83 G/DL
same,LEUKOCYTE COUNT,[1],13.43 x10E3/uL
same,LYMPHOCYTE,[1],89.83%
same,MEAN CORPUSCULAR HEMOGLOBIN,[1],24.88 pg
same,MEAN CORPUSCULAR HEMOGLOBIN CONCENTRATION,[1],39.15 G/DL
same,MEAN CORPUSCULAR VOLUME,[1],63.52 fL
same,MONOCYTE,[1],1.17%
same,NEUTROPHIL,[1],8.33%
same,NUCLEATED RED BLOOD CELLS,[1],0 /100WBC
same,PLATELET COUNT,[1],1181.33 x10E3/uL
same,ALANINE AMINOTRANSFERASE,[1],48.33 u/L
same,ALBUMIN,[1],4.1 G/DL
same,ALKALINE PHOSPHATASE,[1],395 u/L
same,ASPARTATE AMINOTRANSFERASE,[1],81.83 u/L
same,BLOOD UREA NITROGEN,[1],15.83 mg/dL
same,CARBON DIOXIDE,[1],24.17 mmol/L
same,CHLORIDE,[1],103.83 MEQ/L
same,CHOLESTEROL,[1],63.67 mg/dL
same,CREATINE PHOSPHOKINASE,[1],372.83 u/L
same,CREATININE,[1],0.18 mg/dL
same,GLUCOSE,[1],173.83 mg/dL
same,LACTATE DEHYDROGENASE,[1],188.33 u/L
same,LIPASE,[1],9.5 u/L
same,PHOSPHORUS,[1],11.95 mg/dL
same,POTASSIUM,[1],5.99 MEQ/L
same,SODIUM,[1],144.43 MEQ/L
same,TOTAL BILIRUBIN,[1],0.15 mg/dL
same,TOTAL PROTEIN,[1],5.95 G/DL
same,URIC ACID,[1],1.82 mg/dL
same,ABSOLUTE BASOPHIL,[2],0 CELLS/uL
same,ABSOLUTE EOSINOPHIL,[2],26.67 CELLS/uL
same,ABSOLUTE LYMPHOCYTE,[2],7583.83 CELLS/uL
same,ABSOLUTE MONOCYTE,[2],131.33 CELLS/uL
same,ABSOLUTE SEGMENTED NEUTROPHIL,[2],674.83 CELLS/uL
same,BASOPHIL,[2],0%
same,EOSINOPHIL,[2],0.33%
same,ERYTHROCYTE COUNT,[2],5.78 x10E6/uL
same,HEMATOCRIT,[2],36.48%
same,HEMOGLOBIN,[2],14.03 G/DL
same,LEUKOCYTE COUNT,[2],8.42 x10E3/uL
same,LYMPHOCYTE,[2],89.83%
same,MEAN CORPUSCULAR HEMOGLOBIN,[2],24.3 pg
same,MEAN CORPUSCULAR HEMOGLOBIN CONCENTRATION,[2],38.52 G/DL
same,MEAN CORPUSCULAR VOLUME,[2],63.15 fL
same,MONOCYTE,[2],1.67%
same,NEUTROPHIL,[2],8.17%
same,NUCLEATED RED BLOOD CELLS,[2],0 /100WBC
same,PLATELET COUNT,[2],1186.67 x10E3/uL
same,ALANINE AMINOTRANSFERASE,[2],50.17 u/L
same,ALBUMIN,[2],4.07 G/DL
same,ALKALINE PHOSPHATASE,[2],367.5 u/L
same,ASPARTATE AMINOTRANSFERASE,[2],81.67 u/L
same,BLOOD UREA NITROGEN,[2],16.17 mg/dL
same,CARBON DIOXIDE,[2],32.33 mmol/L
same,CHLORIDE,[2],101.5 MEQ/L
same,CHOLESTEROL,[2],65.33 mg/dL
same,CREATINE PHOSPHOKINASE,[2],255.33 u/L
same,CREATININE,[2],0.17 mg/dL
same,GLUCOSE,[2],139.33 mg/dL
same,LACTATE DEHYDROGENASE,[2],95 u/L
same,LIPASE,[2],10.5 u/L
same,PHOSPHORUS,[2],10.38 mg/dL
same,POTASSIUM,[2],6.11 MEQ/L
same,SODIUM,[2],145.55 MEQ/L
same,TOTAL BILIRUBIN,[2],0.17 mg/dL
same,TOTAL PROTEIN,[2],5.98 G/DL
same,URIC ACID,[2],0.93 mg/dL
same,ABSOLUTE BASOPHIL,[3],0 CELLS/uL
same,ABSOLUTE EOSINOPHIL,[3],116.33 CELLS/uL
same,ABSOLUTE LYMPHOCYTE,[3],13980 CELLS/uL
same,ABSOLUTE MONOCYTE,[3],147.67 CELLS/uL
same,ABSOLUTE SEGMENTED NEUTROPHIL,[3],1122.67 CELLS/uL
same,BASOPHIL,[3],0%
same,EOSINOPHIL,[3],0.67%
same,ERYTHROCYTE COUNT,[3],5.35 x10E6/uL
same,HEMATOCRIT,[3],33.67%
same,HEMOGLOBIN,[3],13.37 G/DL
same,LEUKOCYTE COUNT,[3],15.37 x10E3/uL
same,LYMPHOCYTE,[3],90.33%
same,MEAN CORPUSCULAR HEMOGLOBIN,[3],25 pg
same,MEAN CORPUSCULAR HEMOGLOBIN CONCENTRATION,[3],39.73 G/DL
same,MEAN CORPUSCULAR VOLUME,[3],62.97 fL
same,MONOCYTE,[3],1%
same,NEUTROPHIL,[3],8%
same,NUCLEATED RED BLOOD CELLS,[3],0 /100WBC
same,PLATELET COUNT,[3],1183 x10E3/uL
same,ALANINE AMINOTRANSFERASE,[3],54 u/L
same,ALBUMIN,[3],3.97 G/DL
same,ALKALINE PHOSPHATASE,[3],325.67 u/L
same,ASPARTATE AMINOTRANSFERASE,[3],90 u/L
same,BLOOD UREA NITROGEN,[3],18 mg/dL
same,CARBON DIOXIDE,[3],24.33 mmol/L
same,CHLORIDE,[3],103.67 MEQ/L
same,CHOLESTEROL,[3],61.33 mg/dL
same,CREATINE PHOSPHOKINASE,[3],372 u/L
same,CREATININE,[3],0.12 mg/dL
same,GLUCOSE,[3],163.33 mg/dL
same,LACTATE DEHYDROGENASE,[3],339 u/L
same,LIPASE,[3],8.67 u/L
same,PHOSPHORUS,[3],11.87 mg/dL
same,POTASSIUM,[3],5.76 MEQ/L
same,SODIUM,[3],143.73 MEQ/L
same,TOTAL BILIRUBIN,[3],0.2 mg/dL
same,TOTAL PROTEIN,[3],5.77 G/DL
same,URIC ACID,[3],1.13 mg/dL
